Values joined by “and” are separate entries in the source; they are usually repeats but may differ in a detail not shown here. Equal entries are not always repeated.
Experiments:
Type in all cases: in vivo, rat
[1] = test system: Fisher-344 rats exposed to 110-115 dB noise at 4-16 kHz for 4 hours; assay: ABR threshold shift after a single noise exposure (Example 1); conditions: for difference in ABR threshold shifts between control and treated rats: 4-16 kHz click stimulus, ebselen 16 mg/kg
Protocol: (§1) Noise exposure paradigm: 8-week old female Fisher-344 rats were exposed to 110-115 dB noise at 4-16 kHz for 4 hours.
Physiologic analyses: The auditory evoked brainstem response (ABR) was used to assess hearing in each ear in each animal before and after exposure to noise using equipment from Intelligent Hearings System. ABR generated with a click stimulus (broad spectrum stimulus, 4-16 kHz) was measured in 5 dB intervals. Animals were re-evaluated evaluated at 1 day, 1 week, 2 weeks, and 3 weeks post noise exposure. ABR changes measured 1 day post noise exposure are considered to represent a temporary threshold shift (TTS); ABR changes measured 3 weeks post noise exposure are considered to represent a permanent threshold shift (PTS).
(§2) Dosing of Otoprotectants: Ebselen was dissolved at 4 mg/mL in 10% DMSO and administered to rats at 16 mg/kg. N-acetyl-cysteine was dissolved at 100 mg/mL in saline and was administered to rats at 325 mg/kg. About 0.5 ml of ebselen solution or N-acetyl-cysteine solution was injected intra-peritoneally or delivered by oral gavage twice daily the day prior to, the day of, and the day following exposure to noise. Control animals were dosed on an identical schedule with vehicle (10% DMSO) only.
Statistical analysis: All experiments were performed with four rats per study group, and measuring each ear independently before and after noise exposure. Data was collected in blinded studies. Statistical analyses were performed by analysis of variance (ANOVA) between study groups.

[2] = test system: outer hair cells in cochlea of noise-exposed Fisher-344 rats; assay: Cochlear hair cell counts after noise exposure (Example 1); conditions: for physiologic protection from noise-induced hearing loss and hair cell loss: Example 1 conclusion, ebselen 16 mg/kg, N-acetyl-cysteine 325 mg/kg
Protocol: as §1
Morphologic analyses: Hair cell counts in cochlea from test animals following noise exposure and physiologic evaluation using ABR were determined by carefully dissecting cochlea to obtain inner ear sensory epithelia. The tissues were stained with fluorescein-labeled phalloidin (specific for actin filaments, which are abundant in hair cells) and 4,6-diamidino-2-phenylindole (DAPI; specific for the DNA in the nucleus in cells). Samples were then mounted on microscope slides and viewed with epifluorescence to determine the extent of hair cell loss and retention. The correlation between physiologic data (ABR) and morphological data (hair cell counts) allows for confirmation of the protective effects of otoprotectants of the invention.
as §2

[3] = test system: Fisher-344 rats exposed to 110-115 dB noise at 4-16 kHz for 4 hours; assay: ABR permanent threshold shift, ebselen and allopurinol alone or combined (Example 2); conditions: for difference in ABR threshold shifts between control and treated rats: 16 mg/kg individually, combination 8 mg/kg each, highly significant = p<0.01; for protection from both temporary and permanent thresholds shifts: ABR, rats exposed to noise, alone or in combination; for reductions in PTS compared with controls: three weeks after noise exposure, intra-peritoneal injection at 16 mg/kg individually
Protocol: Noise exposure paradigm: 8-10 week old female Fisher-344 rats were exposed to 110-115 dB noise at 4-16 kHz for 4 hours.
Physiologic analyses: ABR generated with a click stimulus (broad spectrum stimulus, 4-16 kHz), and with tone stimuli at frequencies of 4 kHz, 8 kHz, 12 kHz, and 16 kHz, was measured in 5 dB intervals, as described in EXAMPLE 1. Animals were tested before and at 3 weeks post noise exposure to assess PTS.
Dosing of compounds: Ebselen was dissolved at 4 mg/ml in 10% DMSO and allopurinol was dissolved at 4 mg/ml in water. Ebselen and allopurinol were administered to rats at an individual dose of 16 mg/kg or at a combined dose of 8 mg/kg each. About 0.5 ml of ebselen solution, allopurinol solution, or ebselen/allopurinol solution was injected intra-peritoneally or delivered by oral gavage twice daily the day prior to, the day of, and the day following exposure to noise. Control animals were dosed on an identical schedule with vehicle only.
(§3) Statistical analysis: All experiments were performed with four rats per study group, and measuring each ear independently before and after noise exposure. Data was collected in blinded studies. Statistical analyses were performed by ANOVA between study groups.

[4] = test system: Fisher-344 rats exposed to 110 dB noise at 4-16 kHz for 4 hours two times three weeks apart; assay: ABR threshold shift after repeated noise exposure (Example 3); conditions: 16 mg/kg; for difference in ABR threshold shifts between control and treated rats: 3 weeks after two exposures to 110 dB noise
Protocol: (§4) Noise exposure paradigm: 8-week old female Fisher-344 rats were exposed to 110 dB noise at 4-16 kHz for 4 hours two times three weeks apart.
Physiologic analyses: ABR generated with tone stimuli at frequencies of 4 kHz, 8 kHz, 12 kHz, and 16 kHz, was measured in 5 dB intervals, as described in EXAMPLE 1. […]
(§5) Dosing of Ebselen: Ebselen was dissolved at 4 mg/mL in 10% DMSO and administered to rats at a dose of 16 mg/kg. About 0.5 ml of ebselen solution was injected intra-peritoneally or delivered by oral gavage twice daily the day prior to, the day of, and the day following each exposure to noise. Control animals were dosed on an identical schedule with vehicle only.
as §3

[5] = test system: outer hair cells in cochlea of repeatedly noise-exposed Fisher-344 rats; assay: Cochlear hair cell counts after repeated noise exposure (Example 3); conditions: 16 mg/kg
Protocol: as §4
Morphologic analyses: Hair cell counts in cochlea from test animals following noise exposure and physiologic evaluation using ABR were determined as described in EXAMPLE 1.
as §5

[6] = 1 week post noise, N-acetyl-cysteine 325 mg/kg, highly significant = p<0.01, significant = p<0.05
[7] = 2 weeks post noise, N-acetyl-cysteine 325 mg/kg, highly significant = p<0.01, significant = p<0.05
[8] = 3 weeks post noise, N-acetyl-cysteine 325 mg/kg, significant = p<0.05
[9] = 1 day post noise (115 dB, 4-16 kHz, 4 h), N-acetyl-cysteine 325 mg/kg twice daily, highly significant = p<0.01, significant = p<0.05
[10] = 4 kHz stimulus, 3 weeks after noise
[11] = click stimulus, 3 weeks after 115 dB, 4-16 kHz noise for 4 h

SMILES	difference in ABR threshold shifts between control and treated rats [1, 6]	difference in ABR threshold shifts between control and treated rats [1, 7]	difference in ABR threshold shifts between control and treated rats [1, 8]	difference in ABR threshold shifts between control and treated rats [1, 9]	physiologic protection from noise-induced hearing loss and hair cell loss [2]	difference in ABR threshold shifts between control and treated rats [3, 10]	protection from both temporary and permanent thresholds shifts [3]	difference in ABR threshold shifts between control and treated rats [3, 11]	reductions in PTS compared with controls [3]	further results
CC(=O)N[C@@H](CS)C(=O)O [N-acetyl-cysteine, N-acetyl-L-Cysteine]	significant	significant	significant	significant	physiologic protection					reduction in TTS ([1]; click stimulus, all time points after noise exposure, 325 mg/kg): significant reduction
Oc1ncnc2[nH]ncc12 [allopurinol, 4-hydroxypyrazolo[3,4-d]pyrimidine]						highly significant	significant protection	highly significant	significant reductions	difference in ABR threshold shifts between control and treated rats ([3]; 16 kHz stimulus, 3 weeks after noise): highly significant; protection from noise-induced hearing loss and hair cell loss ([3]; statement in Example 1 referring to EXAMPLE 2): provide protection
O=c1c2ccccc2[se]n1-c1ccccc1 [ebselen, 2-phenyl-1,2-benzoisoselenazol-3(2H)-one]	highly significant	highly significant	significant	highly significant	physiologic protection	highly significant	significant protection	highly significant	significant reductions	reduction in TTS and PTS compared to control animals (fold) ([1]; click stimulus, 16 mg/kg): at least two-fold; reduction in TTS (temporary threshold shift) compared with controls ([1]; click stimulus, one day after noise exposure, 16 mg/kg): highly significant reduction; reduction in PTS (permanent threshold shift) compared with controls ([1]; click stimulus, three weeks after noise exposure, 16 mg/kg): significant reduction; PTS of a treated animal ([1]; single ebselen-treated animal, control animal 15 dB PTS): 0 dB; preservation of outer hair cells ([2]; after noise exposure, control animal had almost complete loss of outer hair cells): preservation of most outer hair cells; difference in ABR threshold shifts between control and treated rats ([4]; 8 kHz stimulus, p<0.01): highly significant; difference in ABR threshold shifts between control and treated rats ([4]; 16 kHz stimulus, p<0.05): significant; reduction in TTS compared with controls ([4]; 1 day after repeated noise exposures): significant reduction; PTS compared to controls ([4]; three weeks after repeated noise exposures): significantly reduced; number of outer hair cells lost ([5]; individual rats B and D, two exposures to 110 dB noise, control rats A and C lost 401 and 246): 90 and 56; hair cell loss in cochlea compared to the control group ([5]; repeated noise exposure): less hair cell loss
